The structures appear in SMILES notation.

The subject of the first assay is P. falciparum K1. As to the kind of experiment: Plasmodium falciparum in vitro assay ([3H] hypoxanthine incorporation). The format is cell-based. The settings on record: Plasmodium falciparum, K1, read-out: IC50 (nM) on K1. As for the experimental part: In vitro antimalarial activity: Plasmodium falciparum in vitro assay In vitro activity against erythrocytic stages of P. falciparum is determined using a [^3H] hypoxanthine incorporation assay. One strain resistant to chloroquine and pyrimethamine (P. falciparum K1) is used in the assays, and all test compounds are compared for activity with the standard drugs chloroquine (sigma C6628) and artemisinin (sigma-36, 159-3). Compounds are diluted in DMSO to 1 mM and added to parasite cultures incubated in RPMI 1640 medium without hypoxanthine, supplemented with HEPES (5.94 g/L), NaHCO3 (2.1 g/L), neomycin (100 U/mL), Albumax (5 g/L) and washed human red cells at 2.5% hematocrit (0.3% parasitaemia). Seven serial doubling dilutions of each drug are prepared in 96-well microtitre plates and incubated in a humidifying atmosphere at 37° C.; 4% CO2, 3% O2, 93% N2.
After 48 h, 50 μl of [^3H] hypoxanthine (0.5 μCi) is added to each well of a plate. The plates are incubated for a further 24 h under the same conditions. The plates are then harvested with a Betaplate cell harvester (Wallac) and washed with distilled water. The dried filters are inserted into a plastic foil with 10 mL of scintillation fluid, and counted in a Betaplate liquid scintillation counter. IC50 values are calculated from sigmoidal inhibition curves using Microsoft Excel.
Consider `CCN(CC)CCCC(C)Nc1ccnc2cc(Cl)ccc12` (centres unmarked) [Chloroquine, chloroquine, reference compound], for which the concentration for half-maximal inhibition (IC50) (as a rule, the concentration that inhibits the measured activity by half) stood at 300 nM.

The assay is the same for the next values; noted with them: Plasmodium falciparum; erythrocytic stages, strain K1 resistant to chloroquine and pyrimethamine, human red cells; read-out: IC50 (nM) on K1.
With `Cn1cc(CC(C(=O)N2CCc3ccccc3C2)N(Cc2ccc(-c3ccncc3)cc2)C(=O)C=Cc2ccc(C(F)(F)F)cc2)cn1` (racemic) [Example 80, rac-N-[2-(3,4-Dihydro-1H-isoquinolin-2-yl)-1-(1-methyl-1H-pyrazol-4-ylmethyl)-2-oxo-ethyl]-N-(4-pyridin-4-yl-benzyl)-3-(4-trifluoromethyl-phenyl)-acrylamide], the IC50 was found to be 107 nM.

`Cn1ccc(CC(C(=O)N2CCc3ccccc3C2)N(Cc2ccc(-c3ccncc3)cc2)C(=O)C=Cc2ccc(C(F)(F)F)cc2)n1` (racemic) [Example 82, rac-N-[2-(3,4-Dihydro-1H-isoquinolin-2-yl)-1-(1-methyl-1H-pyrazol-3-ylmethyl)-2-oxo-ethyl]-N-(4-pyridin-4-yl-benzyl)-3-(4-trifluoromethyl-phenyl)-acrylamide]: the 50% inhibitory concentration (IC50) turned out to be 24 nM.

In the case of `Cn1nccc1CC(C(=O)N1CCc2ccccc2C1)N(Cc1ccc(-c2ccncc2)cc1)C(=O)C=Cc1ccc(C(F)(F)F)cc1` (racemic) [Example 84, rac-N-[2-(3,4-Dihydro-1H-isoquinolin-2-yl)-1-(2-methyl-2H-pyrazol-3-ylmethyl)-2-oxo-ethyl]-N-(4-pyridin-4-yl-benzyl)-3-(4-trifluoromethyl-phenyl)-acrylamide], the IC50 stood at 84 nM.

With `O=C(C(Cc1ncccn1)N(Cc1ccc(-c2ccncc2)cc1)C(=O)C=Cc1ccc(C(F)(F)F)cc1)N1CCc2ccccc2C1` (racemic) [Example 86, rac-N-[2-(3,4-Dihydro-1H-isoquinolin-2-yl)-2-oxo-1-pyrimidin-2-ylmethyl-ethyl]-N-(4-pyridin-4-yl-benzyl)-3-(4-trifluoromethyl-phenyl)-acrylamide], the 50% inhibitory concentration (IC50) was found to be 162 nM.

Consider `O=C(C(Cc1ccon1)N(Cc1ccc(-c2ccncc2)cc1)C(=O)C=Cc1ccc(C(F)(F)F)cc1)N1CCc2ccccc2C1` (racemic) [Example 87, rac-N-[2-(3,4-Dihydro-1H-isoquinolin-2-yl)-1-isoxazol-3-ylmethyl-2-oxo-ethyl]-N-(4-pyridin-4-yl-benzyl)-3-(4-trifluoromethyl-phenyl)-acrylamide], for which the 50% inhibitory concentration (IC50) stood at 194 nM.

As for `C[C@@H]1CC[C@H]2[C@@H](C)C(=O)O[C@@H]3O[C@@]4(C)CC[C@@H]1[C@]32OO4` [Artemisinin, artemisinin, reference compound], the IC50 was found to be 2 nM.

Take `O=C([C@H](Cc1ccccc1)N(Cc1ccc(-c2ccccn2)cc1)C(=O)/C=C/c1ccc(C(F)(F)F)cc1)N1CCc2ccccc2C1` [Example 1, (S)—N-[1-Benzyl-2-(3,4-dihydro-1H-isoquinolin-2-yl)-2-oxo-ethyl]-N-(4-pyridin-2-yl-benzyl)-3-(trifluoromethyl-phenyl)-acrylamide]: the IC50 is 3.5 nM.

As to `O=C([C@H](Cc1ccccc1)N(Cc1ccc(-c2cncnc2)cc1)C(=O)C=Cc1ccc(C(F)(F)F)nc1)N1CCc2ccccc2C1` [Example 4, (S)—N-[1-Benzyl-2-(3,4-dihydro-1H-isoquinolin-2-yl)-2-oxo-ethyl]-N-(4-pyrimidin-5-yl-benzyl)-3-(6-trifluoromethyl-pyridin-3-yl)-acrylamide], the half-maximal inhibitory concentration (IC50) is 5 nM.

As to `O=C([C@H](Cc1ccccc1)N(Cc1ccccn1)C(=O)C=Cc1ccc(C(F)(F)F)cc1)N1CCc2ccccc2C1` [Example 6, (S)—N-[1-Benzyl-2-(3,4-dihydro-1H-isoquinolin-2-yl)-2-oxo-ethyl]-N-pyridin-2-ylmethyl-3-(4-trifluoromethyl-phenyl)-acrylamide], the half-maximal inhibitory concentration (IC50) is 25 nM.

For `O=C([C@H](Cc1ccccc1)N(Cc1ccc(-c2ccccn2)cc1)C(=O)C=Cc1ccc(C(F)(F)F)cc1)N1CCc2cc(F)ccc2C1` [Example 10, (S)—N-[1-Benzyl-2-(6-fluoro-3,4-dihydro-1H-isoquinolin-2-yl)-2-oxo-ethyl]-N-(4-pyridin-2-yl-benzyl)-3-(4-trifluoromethyl-phenyl)-acrylamide], the 50% inhibitory concentration (IC50) amounted to 14 nM.

Source of the values: US20110281869A1, “TETRAHYDROISOQUINOLINES AS ANTIMALARIAL AGENTS” (priority 2008, published 2011).
